According to the CheMixHub viscosity set:

Test: xn = mol fraction of the nth substance listed

CCCCCCn1cc[n+](C)c1.[Cl][Fe-]([Cl])([Cl])[Cl] + CCOC(C)=O
viscosity [mPa·s], 101 kPa
Conditions | x1 = 0.093 | x1 = 0.1851 | x1 = 0.2815 | x1 = 0.377 | x1 = 0.4719 | x1 = 0.5799 | x1 = 0.6752 | x1 = 0.7764 | x1 = 0.8869
293.15 K | 1.14 | 2.3 | 4.29 | 7.45 | 11.71 | 18.13 | 26.64 | 36.57 | 51.89
298.15 K | 1.07 | 2.11 | 3.87 | 6.62 | 10.22 | 15.53 | 22.42 | 30.27 | 42.15
303.15 K | 1.01 | 1.95 | 3.51 | 5.93 | 9.02 | 13.48 | 19.08 | 25.46 | 34.86
308.15 K | 0.95 | 1.8 | 3.2 | 5.34 | 8.01 | 11.79 | 16.45 | 21.68 | 29.26
313.15 K | 0.89 | 1.68 | 2.93 | 4.84 | 7.18 | 10.4 | 14.33 | 18.64 | 24.83
318.15 K | 0.85 | 1.57 | 2.7 | 4.42 | 6.46 | 9.26 | 12.6 | 16.23 | 21.38
323.15 K | 0.8 | 1.47 | 2.5 | 4.05 | 5.85 | 8.3 | 11.15 | 14.24 | 18.51

CC(O)CCO (configuration not stated) + CN1CCCC1=O
308.15 K, 101 kPa
Conditions | viscosity [mPa·s]
x1 = 0.0282 | 1.736
x1 = 0.0582 | 1.864
x1 = 0.1089 | 2.153
x1 = 0.2015 | 2.678
x1 = 0.3004 | 3.197
x1 = 0.4043 | 4.211
x1 = 0.4985 | 6.742
x1 = 0.5972 | 9.628
x1 = 0.7036 | 14.66
x1 = 0.798 | 22.77
x1 = 0.9029 | 34.77
x1 = 0.94 | 43.52
x1 = 0.9796 | 51.25

CC(O)CCO (configuration not stated) + CN(C)C=O
308.15 K, 101 kPa
Conditions | viscosity [mPa·s]
x1 = 0.0531 | 0.762
x1 = 0.1 | 0.87
x1 = 0.1985 | 1.178
x1 = 0.3069 | 1.688
x1 = 0.4018 | 2.399
x1 = 0.4993 | 3.462
x1 = 0.6107 | 6.621
x1 = 0.6844 | 9.795
x1 = 0.7882 | 17.12
x1 = 0.8916 | 28.94
x1 = 0.9544 | 38.83

c1ccncc1 + CO
298 K, 101.3 kPa
Conditions | viscosity [mPa·s]
x2 = 0.1249 | 0.85
x2 = 0.2338 | 0.82
x2 = 0.4192 | 0.763
x2 = 0.5695 | 0.714
x2 = 0.694 | 0.67
x2 = 0.7987 | 0.631
x2 = 0.8881 | 0.596
x2 = 0.9652 | 0.565

c1ccncc1 + CS(C)=O
viscosity [mPa·s], 101.3 kPa
Conditions | 298.15 K | 308.15 K | 318.15 K
x1 = 0.041 | 1.859 | 1.535 | 1.246
x1 = 0.089 | 1.803 | 1.47 | 1.191
x1 = 0.18 | 1.6 | 1.318 | 1.098
x1 = 0.274 | 1.488 | 1.2 | 1.042
x1 = 0.369 | 1.38 | 1.13 | 0.972
x1 = 0.468 | 1.28 | 1.044 | 0.922
x1 = 0.569 | 1.185 | 0.984 | 0.858
x1 = 0.673 | 1.097 | 0.913 | 0.795
x1 = 0.779 | 1.029 | 0.849 | 0.753
x1 = 0.888 | 0.969 | 0.791 | 0.723
x1 = 0.943 | 0.975 | 0.76 | 0.715

c1ccncc1 + Cc1ccc(C)cc1
viscosity [mPa·s], 101 kPa
Conditions | x2 = 0.0992 | x2 = 0.1993 | x2 = 0.2987 | x2 = 0.3993 | x2 = 0.4949 | x2 = 0.6001 | x2 = 0.6997 | x2 = 0.7994 | x2 = 0.8981
293.15 K | 0.8699 | 0.8193 | 0.7862 | 0.7311 | 0.6964 | 0.6582 | 0.6345 | 0.6152 | 0.5919
303.15 K | 0.7603 | 0.7165 | 0.6902 | 0.6422 | 0.6139 | 0.5868 | 0.5656 | 0.5475 | 0.5316
313.15 K | 0.6704 | 0.6302 | 0.6051 | 0.565 | 0.5399 | 0.5172 | 0.4986 | 0.4819 | 0.4686
323.15 K | 0.5894 | 0.5534 | 0.5296 | 0.496 | 0.4742 | 0.4548 | 0.4385 | 0.4238 | 0.4123

c1ccncc1 + Cc1cccc(C)c1
viscosity [mPa·s], 101 kPa
Conditions | x2 = 0.1993 | x2 = 0.2997 | x2 = 0.3994 | x2 = 0.524 | x2 = 0.5987 | x2 = 0.7003 | x2 = 0.7968 | x2 = 0.8972
293.15 K | 0.8031 | 0.7468 | 0.7151 | 0.6612 | 0.6415 | 0.6114 | 0.59 | 0.5649
303.15 K | 0.7062 | 0.6592 | 0.6241 | 0.5859 | 0.5687 | 0.547 | 0.5279 | 0.5097
313.15 K | 0.6189 | 0.5815 | 0.5504 | 0.5173 | 0.5023 | 0.4843 | 0.4668 | 0.4544
323.15 K | 0.5442 | 0.5118 | 0.4851 | 0.4563 | 0.4433 | 0.428 | 0.4122 | 0.4019

c1ccncc1 + Cc1ccccc1C
viscosity [mPa·s], 101 kPa
Conditions | x2 = 0.1002 | x2 = 0.2001 | x2 = 0.2999 | x2 = 0.3993 | x2 = 0.4968 | x2 = 0.6002 | x2 = 0.6992 | x2 = 0.7985 | x2 = 0.8945
293.15 K | 0.9083 | 0.8811 | 0.8575 | 0.8434 | 0.8268 | 0.806 | 0.7925 | 0.7798 | 0.7769
303.15 K | 0.7933 | 0.7696 | 0.7498 | 0.7375 | 0.721 | 0.7069 | 0.6976 | 0.6881 | 0.6804
313.15 K | 0.7 | 0.6779 | 0.6586 | 0.6456 | 0.63 | 0.6195 | 0.6097 | 0.6015 | 0.595
323.15 K | 0.6145 | 0.5949 | 0.5776 | 0.5654 | 0.5525 | 0.5433 | 0.5347 | 0.528 | 0.5228
